Key:
Format in all cases: biochemical
[1] = molecular target: T1, IDH1^R132H homodimer enzyme (Homo sapiens, UniProt O75874, R132H); assay: NADPH depletion assay, IDH1 R132H
T1 construct: purchased not specified
Summary of the method: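 IDH1 R132H enzyme (8 nM as diluted) in Tris-HCl pH 7.6 with 10 mM MgCl2, 0.001% Triton X-100 and 4 mM β-mercaptoethanol is preincubated 15 min at RT with compound. Substrate mix (12 uM NADPH, 3.4 mM α-ketoglutarate) is added for 60 min; remaining NAD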

[2] = molecular target: T2, IDH1^R132C (Homo sapiens, UniProt O75874, R132C); assay: NADPH depletion assay, IDH1 R132C
T2 construct: purchased not specified
T2 sequence (O75874 whole entry R132C): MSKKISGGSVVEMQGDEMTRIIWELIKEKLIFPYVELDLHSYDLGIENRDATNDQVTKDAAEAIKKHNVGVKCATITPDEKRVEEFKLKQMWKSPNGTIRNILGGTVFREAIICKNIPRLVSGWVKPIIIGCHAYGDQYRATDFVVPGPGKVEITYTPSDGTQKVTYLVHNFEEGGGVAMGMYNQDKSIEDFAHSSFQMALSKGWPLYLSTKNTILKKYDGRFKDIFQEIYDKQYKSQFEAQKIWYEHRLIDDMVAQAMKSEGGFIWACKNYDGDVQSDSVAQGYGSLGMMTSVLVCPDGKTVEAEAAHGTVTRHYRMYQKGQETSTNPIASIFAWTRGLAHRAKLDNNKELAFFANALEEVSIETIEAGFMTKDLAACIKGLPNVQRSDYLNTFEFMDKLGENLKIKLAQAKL
Summary of the method: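 Fluorescence readout (Ex544/Em590) of NADPH left after diaphorase/resazurin addition. Alpha-ketoglutarate 0.14 mM final, enzyme 2 nM final; compound preincubation 15 min, then 60 min reaction, both at room temperature, pH 7.6 Tris buffer.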

[3] = molecular target: T3, IDH2^R172K (Homo sapiens, UniProt P48735, R172K); assay: NADPH depletion assay, IDH2 R172K
T3 construct: purchased not specified
T3 sequence (P48735 40-452 R172K): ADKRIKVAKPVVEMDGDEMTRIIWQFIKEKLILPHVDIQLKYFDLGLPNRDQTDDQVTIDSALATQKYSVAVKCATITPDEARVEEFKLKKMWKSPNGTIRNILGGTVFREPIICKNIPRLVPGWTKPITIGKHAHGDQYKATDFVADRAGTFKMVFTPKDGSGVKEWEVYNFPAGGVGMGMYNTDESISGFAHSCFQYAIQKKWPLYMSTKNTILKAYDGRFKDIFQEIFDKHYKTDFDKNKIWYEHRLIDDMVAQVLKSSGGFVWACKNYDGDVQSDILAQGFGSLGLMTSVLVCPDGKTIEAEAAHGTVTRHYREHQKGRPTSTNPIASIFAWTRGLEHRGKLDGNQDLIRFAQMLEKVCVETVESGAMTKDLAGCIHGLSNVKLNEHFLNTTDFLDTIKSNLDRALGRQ
Procedure: IDH mutated enzyme activity converting alpha-ketoglutarate to 2-hydroxyglutaric acid is measured using a NADPH depletion assay. In the assay the remaining cofactor is measured at the end of the reaction with the addition of a catalytic excess of diaphorase and resazurin, to generate a fluorescent signal in proportion to the amount of NADPH remaining. IDH1 WT enzyme as well as mutated isoforms IDH1^R132H, IDH1^R132C, and IDH^2R172K enzymes are commercially available proteins (see e.g. Sino Biological, Abcam, Active Motif or Creative BioMart).
IDH1^R132H homodimer enzyme are diluted to 8 nM, in 10 μL of Assay Buffer (150 mM NaCl, 50 mM Tris-HCl pH 7.6, 10 mM MgCl2, 0.001% Triton X-100, 4 mM β-mercaptoethanol); 0.2 uL of test compound, previously serially diluted 1 to 3, >10 experimental points from 1 mM in DMSO, is added and the mixture is incubated for 15 minutes at room temperature. The reaction is started with the addition of 10 μL of Substrate Mix (12 uM NADPH, 3.4 mM alpha-ketoglutarate in Assay Buffer) and the mixture is incubated for 60 minutes at room temperature. The reaction is terminated with the addition of 5 μl of Detection Buffer (100 μg/mL diaphorase, 30 μM resazurin, in IX Assay Buffer), and is incubated for 15 minute before reading on a ViewLux as platereader at Ex544/Em590.
Compounds are assayed for their activity against IDH2^R172K following the same assay as above with the following modifications: IDH2^R172K and alpha-ketoglutarate final concentrations in the Assay Buffer is 16 nM and 0.55 mM, respectively.

T1 sequence (O75874 whole entry R132H): as the sequence (O75874 whole entry R132C) above, with C132H counted along it

SMILES | IC50 [1] [nM] | IC50 [2] [nM] | IC50 [3] [nM]
COC(=O)C(C)(C)Cn1c(=O)ccc2cnc(N[C@@H](C)c3ccc4ccccc4c3)nc21 [cpd 37, methyl 2,2-dimethyl-3-[2-{[(1S)-1-(naphthalen-2-yl)ethyl]amino}-7-oxopyrido[2,3-d]pyrimidin-8(7H)-yl]propanoate] | 1480 | 805 | 4850
CC(C)[C@H](C)n1c(=O)ccc2cnc(N[C@@H](C)c3cc4cc(Cl)ccc4[nH]c3=O)nc21 [cpd 172, 2-{[(1S)-1-(6-chloro-2-oxo-1,2-dihydroquinolin-3-yl)ethyl]amino}-8-[(2S)-3-methylbutan-2-yl]pyrido[2,3-d]pyrimidin-7(8H)-one] | 179 | 56 | 3590
C[C@H](Nc1ncc2ccc(=O)n(CC(C)(C)C)c2n1)c1ccc(OC2CCN(C(=O)OC(C)(C)C)CC2)cc1 [cpd 154, 4-(4-{(S)-1-[8-(2,2-Dimethyl-propyl)-7-oxo-7,8-dihydro-pyrido[2,3-d]pyrimidin-2-ylamino]-ethyl}-phenoxy)-piperidine-1-carboxylic acid tert-butyl ester] | 199 | 79 | 5380
CC[C@@H](C)n1c(=O)ccc2cnc(N[C@@H](C)c3ccc(CN4CCCC(F)(F)C4)cc3)nc21 [cpd 149, 8-[(2R)-butan-2-yl]-2-{[(1S)-1-{4-[(3,3-difluoropiperidin-1-yl)methyl]phenyl}ethyl]amino}pyrido[2,3-d]pyrimidin-7(8H)-one] | 85 | 48 | 3330
C=CC(=O)N1CCN(Cc2ccc([C@H](C)Nc3ncc4ccc(=O)n([C@@H](C)CO)c4n3)cc2)CC1 [cpd 199, 2-{[(1S)-1-{4-[(4-acryloylpiperazin-1-yl)methyl]phenyl}ethyl]amino}-8-[(2S)-1-hydroxypropan-2-yl]pyrido[2,3-d]pyrimidin-7(8H)-one] | 1400 | 1530 | 717
CC(C)[C@H](C)n1c(=O)ccc2cnc(N[C@@H](C)c3ccc(Br)cc3)nc21 [cpd 163, 2-{[(1S)-1-(4-bromophenyl)ethyl]amino}-8-[(2S)-3-methylbutan-2-yl]pyrido[2,3-d]pyrimidin-7(8H)-one] | 163 | 87 | 6600
CC(Nc1ncc2ccc(=O)n(Cc3ccccc3)c2n1)c1ccc(CN2CCC(F)(F)CC2)cc1 (stereo not drawn) [cpd 96, 8-benzyl-2-[(1-{4-[(4,4-difluoropiperidin-1-yl)methyl]phenyl}ethyl)amino]pyrido[2,3-d]pyrimidin-7(8H)-one] | 801 | 420 | 5020
C[C@H](Nc1ncc2ccc(=O)n(Cc3ccc(F)c(F)c3)c2n1)c1ccc(Cl)cc1 [cpd 23, 2-{[(1S)-1-(4-chlorophenyl)ethyl]amino}-8-(3,4-difluorobenzyl)pyrido[2,3-d]pyrimidin-7(8H)-one] | 2090 | 891 | 3490
C=CC(=O)N1CCC(NC(=O)c2ccc([C@H](C)Nc3ncc4ccc(=O)n(C(C)C)c4n3)cc2F)CC1 [cpd 192, N-(1-acryloylpiperidin-4-yl)-2-fluoro-4-[(1S)-1-{[7-oxo-8-(propan-2-yl)-7,8-dihydropyrido[2,3-d]pyrimidin-2-yl]amino}ethyl]benzamide] | 227 | 252 | 645
C[C@H](Nc1ncc2ccc(=O)n(Cc3cccc(O)c3)c2n1)c1ccc(Cl)cc1 [cpd 71, 2-{[(1S)-1-(4-chlorophenyl)ethyl]amino}-8-(3-hydroxybenzyl)pyrido[2,3-d]pyrimidin-7(8H)-one] | 2480 | 964 | 4830
CCn1c(=O)ccc2cnc(N[C@@H](C)c3ccc(Cl)cc3)nc21 [cpd 14, 2-{[(1S)-1-(4-chlorophenyl)ethyl]amino}-8-ethylpyrido[2,3-d]pyrimidin-7(8H)-one] | 1740 | 850 | 5730
CC(Nc1ncc2ccc(=O)n(Cc3c(F)cccc3F)c2n1)c1ccc(CN2CCC(F)(F)CC2)cc1 (stereo not drawn) [cpd 98, 8-(2,6-difluorobenzyl)-2-[(1-{4-[(4,4-difluoropiperidin-1-yl)methyl]phenyl}ethyl)amino]pyrido[2,3-d]pyrimidin-7(8H)-one] | 366 | 217 | 5340
C[C@H](Nc1ncc2ccc(=O)n(CC(C)(C)C)c2n1)c1ccc(CN2CCC(F)(F)C2)cc1 [cpd 148, 2-{[(1S)-1-{4-[(3,3-difluoropyrrolidin-1-yl)methyl]phenyl}ethyl]amino}-8-(2,2-dimethylpropyl)pyrido[2,3-d]pyrimidin-7(8H)-one] | 187 | 109 | 5830
C[C@H](Nc1ncc2ccc(=O)n(CC(F)(F)F)c2n1)c1ccc(CN2CCC(F)(F)CC2)cc1 [cpd 106, 2-{[(1S)-1-{4-[(4,4-difluoropiperidin-1-yl)methyl]phenyl)ethyl]amino)-8-(2,2,2-trifluoroethyl)pyrido[2,3-d]pyrimidin-7(8H)-one] | 1230 | 667 | 2910
C[C@H](Nc1ncc2ccc(=O)n(CC(C)(C)C)c2n1)c1ccc(-c2ccsc2)cc1 [cpd 133, 8-(2,2-dimethylpropyl)-2-({(1S)-1-[4-(thiophen-3-yl)phenyl]ethyl}amino)pyrido[2,3-d]pyrimidin-7(8H)-one] | 218 | 141 | 5050
CC(C)Cn1c(=O)ccc2cnc(N[C@@H](C)c3ccc(Cl)cc3)nc21 [cpd 19, 2-{[(1S)-1-(4-chlorophenyl)ethyl]amino}-8-(2-methylpropyl)pyrido[2,3-d]pyrimidin-7(8H)-one] | 410 | 203 | 6680
CC(C)[C@H](C)n1c(=O)ccc2cnc(N[C@@H](C)c3ccc(N4CCN(C(=O)OCc5ccccc5)CC4)c(F)c3)nc21 [cpd 178, Benzyl 4-{2-fluoro-4-[(1S)-1-({8-[(2S)-3-methylbutan-2-yl]-7-oxo-7,8-dihydropyrido[2,3-d]pyrimidin-2-yl}amino)ethyl]phenyl}piperazine-1-carboxylate] | 46 | 30 | 5020
CCC(C)n1c(=O)ccc2cnc(N[C@@H](C)c3ccc(CN4CCCC(F)(F)C4)cc3)nc21 (stereo partly drawn) [cpd 61, 8-(butan-2-yl)-2-{[(1S)-1-{4-[(3,3-difluoropiperidin-1-yl)methyl]phenyl}ethyl]amino}pyrido[2,3-d]pyrimidin-7(8H)-one] | 71 | 38 | 5020
C[C@H](Nc1ncc2ccc(=O)n(Cc3c(F)cccc3F)c2n1)c1ccc(Cl)cc1 [cpd 31, 2-{[(1S)-1-(4-chlorophenyl)ethyl]amino}-8-(2,6-difluorobenzyl)pyrido[2,3-d]pyrimidin-7(8H)-one] | 323 | 147 | 2200
CC(Nc1ncc2ccc(=O)n(Cc3ccccc3F)c2n1)c1ccc(CN2CCC(F)(F)CC2)cc1 (stereo not drawn) [cpd 97, 2-[(1-{4-[(4,4-difluoropiperidin-1-yl)methyl]phenyl}ethyl)amino]-8-(2-fluorobenzyl)pyrido[2,3-d]pyrimidin-7(8H)-one] | 524 | 323 | 5030
C[C@H](Nc1ncc2ccc(=O)n(Cc3ccc(F)cc3)c2n1)c1ccc(Cl)cc1 [cpd 28, 2-{[(1S)-1-(4-chlorophenyl)ethyl]amino}-8-(4-fluorobenzyl)pyrido[2,3-d]pyrimidin-7(8H)-one] | 1480 | 590 | 2510
CC(C)[C@H](C)n1c(=O)ccc2cnc(N[C@@H](C)c3ccc(C4=CCN(C(=O)OC(C)(C)C)CC4)cc3)nc21 [cpd 167, tert-butyl 4-{4-[(1S)-1-({8-[(2S)-3-methylbutan-2-yl]-7-oxo-7,8-dihydropyrido[2,3-d]pyrimidin-2-yl}amino)ethyl]phenyl}-3,6-dihydropyridine-1(2H)-carboxylate] | 30 | 23 | 2560

— US12018023B2 (NERVIANO MEDICAL SCIENCES S.R.L., priority 2018, dated 2024)
